This note sets out measurements from patent publication US8883758B2, “3,5-disubstituted and 3,5,7-trisubstituted-3H-oxazolo and 3H-thiazolo[4,5-d]pyrimidin-2-one compounds and prodrugs thereof” (Anadys Pharmaceuticals, Inc., priority 2004, dated 2014).

Each structure is given as a SMILES string. Some results are limits rather than exact numbers.

The test system of the experiment is human PBMCs. The experiment in a line: IFN-α induction from peripheral blood mononuclear cells (PBMC), IFN-α ELISA. In kind it is cell-based. Particulars: for Emax: Homo sapiens, PBMC, percentage of the level of IFN-α induction by either 32 or 100 μM isatoribine, 24 hours compound exposure, read-out: IFN-α induction from PBMCs relative to isatoribine; for Difference in amount of IFN-α produced compared with isatoribine: 100 μM test agent. The protocol: Peripheral blood mononuclear cells (PBMCs) are prepared by standard methods from human blood and are primarily comprised of monocytes, NK cells, circulating dendritic cells and both T and B cells. Briefly, they are purified by density gradient centrifugation from a buffy coat, which is the component of whole blood that contains leukocytes and platelets. In turn, buffy coats are prepared by centrifuging whole blood and isolating the thin cream colored layer between the upper plasma layer and the lower red blood cell portion of the separated mixture.
Freshly collected donor buffy coats were obtained from the San Diego Blood Bank. PBMCs were isolated from the buffy coats using histopaque-1077 gradient (Sigma), essentially as described in the manufacturer's protocol. Buffy coats were transferred into 50 ml centrifuge tubes and PBS added to a total volume of 35 ml. Next 10 ml histopaque-1077 was underlayed at the bottom of each tube, which were then centrifuged at 259×g for 30 minutes at room temperature without brake in a 5804 R centrifuge (Eppendorf). The top PBS level from each tube was removed and discarded and the buffy coat layer transferred to a fresh tube. The total volume was made up to 50 ml with PBS and the tubes were then centrifuged for 10 minutes at 259×g at room temperature. The cells were washed an additional 3 times with PBS in this manner.
The cell (PBMC) pellet was then resuspended in 30-40 ml complete (RPMI 1640) media. PBMCs were seeded at either 2.5 or 7.5×10^6 cells/ml complete media (1× and 3× seedings, respectively) and allowed to rest overnight before compound exposure for 24 hours. The cells and media were then collected, centrifuged for 5 minutes at 735×g in a 5415 C microfuge (Eppendorf) at room temperature and the supernatant analyzed by IFN-α ELISA. […] Hereby incorporated by reference in their entireties are U.S. Pat. Nos. 5,041,426 and 4,880,784, and U.S. patent application Ser. No. 10/861,430 (U.S. Patent Application Publication No. US 2005/0070556), which disclose, inter alia, IFN-α induction of isatoribine.
Accordingly, relative activities of the compounds of the invention are expressed as a percentage of the level of IFN-α induction by either 32 or 100 μM isatoribine.
Human IFN-α ELISA (#KHC4012) was performed as described in Biosource protocol. However, to ensure that readings were within the linear range of detection, PBMC supernatant samples were typically diluted 1:3 (2.5×10^6 cells/ml seeding) or 1:15 (7.5×10^6 cells/ml seeding) and then analyzed together with undiluted supernatant samples. The concentration in each sample was calculated from the O.D. by reference to a standard curve.

Where [1] appears, read: 1× PBMC seeding, 100 μM test compound.

As to `CC(=O)OC[C@@H]1C[C@@H](OC(C)=O)[C@H](n2c(=O)sc3c(=O)[nH]c(N)nc32)O1` [Compound 121, 5-Amino-3-(2′,5′-di-O-acetyl-3′-deoxy-β-D-ribofuranosyl)-3H,6H-thiazolo[4,5-d]pyrimidine-2,7-dione], the Emax is above 100%.
Same read-out and setting: with `CC(=O)O[C@@H]1[C@@H](F)[C@@H](COC(=O)c2ccccc2)O[C@H]1n1c(=O)sc2c(=O)[nH]c(N)nc21` [Compound 152, (3′R)-5-Amino-3-(2′-O-acetyl-5′-O-benzoyl-3′-deoxy-3′-fluoro-β-D-xylofuranosyl)-3H,6H-thiazolo[4,5-d]pyrimidin-2,7-dione] the figure was 11 to 50%; with `Nc1nc2c(sc(=O)n2[C@@H]2O[C@H](CO)[C@@H](CO)[C@H]2O)c(=O)[nH]1` [Compound 148, (3′S)-5-Amino-3-(3′-deoxy-3′-hydroxymethyl-β-D-ribofuranosyl)-3H,6H-thiazolo[4,5-d]pyrimidin-2,7-dione], 0 to 10%; with `Nc1nc2c(sc(=S)n2[C@@H]2O[C@H](CO)[C@@H](O)[C@H]2O)c(=O)[nH]1` [Compound 33, 5-amino-2,3-dihydro-2-thioxo-3-β-D-ribofuranosyl-thiazolo[4,5-d]pyrimidin-7(6H)-one], 0 to 10%.
Same read-out and setting: under `CO[C@@H]1[C@@H](O)[C@H](n2c(=O)sc3c(=O)[nH]c(N)nc32)O[C@@H]1CO` [Compound 137, 5-Amino-3-(3′-(R)-Methoxy-β-D-xylofuranosyl)-3H,6H-thiazolo[4,5-d]pyrimidin-2-one] stands 51 to 100%; under `C[C@]1(O)[C@@H](CO)O[C@@H](n2c(=O)sc3c(=O)[nH]c(N)nc32)[C@@H]1O` [Compound 141, 5-Amino-3-(3′-(S)-methyl, 2′,3′,5′-tri-hydroxy-β-D-xylofuranosyl)-3H,6H-thiazolo[4,5-d]pyrimidin-2-one], 0 to 10%; under `CC(=O)OC[C@H]1O[C@@H](n2c(=O)sc3c(=O)[nH]c(N)nc32)[C@H](OC(C)=O)[C@H]1OC(C)=O` [Compound 133, 5-Amino-3-(2′,3′,5′-tri-O-acetyl-β-D-xylofuranosyl)-3H,6H-thiazolo[4,5-d]pyrimidin-2-one], above 100%.
Regarding `CC(=O)OC[C@H]1O[C@@H](n2c(=S)sc3c(=O)[nH]c(N)nc32)[C@H](OC(C)=O)[C@H]1OC(C)=O` [Compound 34, 5-amino-2,3-dihydro-2-thioxo-3-(2′,3′,5′-tri-O-acetyl-β-D-xylofuranosyl)thiazolo[4,5-d]pyrimidin-7-(6H)-one], the Emax is above 100%.
As to `Nc1nc2c(sc(=O)n2[C@@H]2O[C@H](CO)C[C@H]2O)c(=O)[nH]1` [Compound 122, 5-Amino-3-(3′-deoxy-β-D-ribofuranosyl)-3H,6H-thiazolo[4,5-d]pyrimidine-2,7-dione], the Emax is above 100%. The “IFN-α production compared with isatoribine” value under setting [1] is “significantly and substantially more IFN-α production”. Moreover, where the note is “3× PBMC seeding, 32 μM”, the “IFN-α production compared with isatoribine” value was “dramatically and unexpectedly outperform isatoribine”. For the same compound, under “3× PBMC seeding”, the “Difference in amount of IFN-α produced compared with isatoribine” value was “less clear-cut although visually apparent and statistically significant”.
In the case of `Nc1nc2c(sc(=O)n2[C@@H]2O[C@H](CO)[C@H](F)[C@H]2O)c(=O)[nH]1` [Compound 153, (3′R)-5-Amino-3-(3′-deoxy-3′-fluoro-β-D-xylofuranosyl)-3H,6H-thiazolo[4,5-d]pyrimidin-2,7-dione], the Emax was above 100%.
With `C=C1[C@@H](O)[C@H](n2c(=O)sc3c(=O)[nH]c(N)nc32)O[C@@H]1CO` [Compound 132, 5-Amino-3-(3′-deoxy-3′-methylidene-β-D-ribofuranosyl)-3H,6H-thiazolo[4,5-d]pyrimidine-2,7-dione], the Emax is above 100%.
Turning to `CC(=O)OC[C@H]1[C@@H](OC(C)=O)[C@H](n2c(=O)sc3c(=O)[nH]c(N)nc32)O[C@@H]1COC(C)=O` [Compound 147, (3′S)-5-Amino-3-(3′-acetoxymethyl-2′,5′-di-O-acetyl-3′-deoxy-β-D-ribofuranosyl)-3H,6H-thiazolo[4,5-d]pyrimidin-2,7-dione], the Emax was above 100%.
`C[C@@]1(O)[C@@H](CO)O[C@@H](n2c(=O)sc3c(=O)[nH]c(N)nc32)[C@@H]1O` [Compound 117, 5-Amino-3-(3′-C-methyl-β-D-ribofuranosyl)thiazolo[4,5-d]pyrimidine-2,7(3H,6H)-dione]: the Emax is above 100%.
The same measure, in the same setting: under `CCCCCCn1c(=O)sc2c(=O)[nH]c(N)nc21` [Compound 157, 5-Amino-3-hexyl-3H,6H-thiazolo[4,5-d]pyrimidine-2,7-dione] stands 0 to 10%; under `Nc1nc2c(sc(=O)n2[C@H]2C[C@H](O)[C@@H](CO)O2)c(=O)[nH]1` [Compound 130, 5-Amino-3-(2′-deoxy-β-D-ribofuranosyl)-3H,6H-thiazolo[4,5-d]pyrimidine-2,7-dione], 51 to 100%; under `Nc1nc2c(sc(=O)n2[C@H]2CC[C@@H](CO)O2)c(=O)[nH]1` [Compound 165, 5-Amino-3-(2′,3′-dideoxy-β-D-ribofuranosyl)-3H,6H-thiazolo[4,5-d]pyrimidine-2,7-dione], 11 to 50%.
Still for that read-out and setting: under `CC(=O)OC[C@H]1O[C@@H](n2c(=S)sc3c(=O)[nH]c(N)nc32)[C@H](OC(C)=O)[C@@H]1OC(C)=O` [Compound 32, 5-amino-2,3-dihydro-2-thioxo-3-(2′,3′,5′-tri-O-acetyl-β-D-ribofuranosyl)thiazolo[4,5-d]pyrimidin-7-(6H)-one] stands 51 to 100%; under `CC(=O)OCC(OC(C)=O)[C@H]1O[C@@H](n2c(=O)sc3c(=O)[nH]c(N)nc32)[C@H](OC(C)=O)[C@H]1OC(C)=O` (stereo partly drawn) [Compound 142, 5-Amino-3-(5′-(1,2-diacetoxy-ethyl), 2′,3′-di-O-acetyl-β-D-glucofuranosyl)-3H,6H-thiazolo[4,5-d]pyrimidin-2-one], 0 to 10%.
With `Nc1nc2c(sc(=O)n2[C@@H]2O[C@H](CO)[C@H](O)[C@H]2O)c(=O)[nH]1` [Compound 134], the Emax was above 100%. Moreover, the “IFN-α production compared with isatoribine” value under setting [1] was “significantly and substantially more IFN-α production”. Where the note is “3× PBMC seeding, 32 μM”, the “IFN-α production compared with isatoribine” value is “dramatically and unexpectedly outperform isatoribine”. The “Difference in amount of IFN-α produced compared with isatoribine” value (3× PBMC seeding) was “less clear-cut although visually apparent and statistically significant”.
